Columns and labels:
ECHCG (Barnyardgrass) = test: Preemergence herbicidal evaluation; type: in vivo, Echinochloa crus-galli; conditions: rated 4-5 weeks after treatment; for ECHCG rating: preemergence, 0-9 scale
How it was run: (§1)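 Scores (0–9) reflect visual comparison with control plants for stand, vigor, malformation, size and chlorosis. Compound was applied to the soil after sowing, before emergence, as an aqueous acetone spray (about 0.0156–0.500 kg/ha), and cups were kept in a greenhouse for 4–5 weeks.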

GALAP (Galium) = test: Preemergence herbicidal evaluation; type: in vivo, Galium aparine; conditions: rated 4-5 weeks after treatment; for GALAP rating: preemergence, 0-9 scale
How it was run: as §1

[1] = system: GLXMAW (Soybean, Williams); test: Preemergence herbicidal evaluation; type: in vivo, Glycine max, (L.) Merr. cv Williams; conditions: rated 4-5 weeks after treatment; for GLXMAW rating: preemergence, 0-9 scale
How it was run: as §1

[2] = system: IPOHE (Morningglory, Ivyleaf); test: Postemergence herbicidal evaluation; type: in vivo, Ipomoea hederacea; conditions: for IPOHE herbicidal rating / Herbicidal rating IPOHE: postemergence
How it was run: (§2)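 Compound is applied as a foliar spray to seedlings about two weeks old, formulated in equal parts acetone and water with 0.5% TWEEN 20 and delivered at 40 psi to give about 0.0156–0.500 kg per hectare. Injury is rated visually 0–9 after four to five weeks.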

MOOVA (Monochoria) = test: Postemergence weed control under flooded paddy conditions; type: in vivo, Monochoria vaginalis; conditions: postemergence weeds
Description: Results of herbicide evaluation are expressed on a rating scale (0-9). The scale is based upon a visual observation of plant stand, vigor, malformation, size, chlorosis and overall plant appearance as compared with a control.
Plastic containers containing weeds which are 3 to 5 cm tall and rice seedlings at the 1.5 to 2.5 leaf stage are flooded with water. The water is maintained at 1.5 to 3 cm above the soil surface for the duration of the experiment. Test compounds are applied as aqueous/ acetone mixtures 50/50 v/v directly into the flood water to provide the equivalent of about 0.0313 to 0.500 kg/ha of active ingredient. The treated containers are placed on greenhouse benches and cared for in accordance with conventional greenhouse procedures. Three to four weeks after treatment, the test is terminated and each container is examined and herbicidal effect rated according to the rating system provided in Example 37. The compounds evaluated are reported by compound number given in Example 37.

[3] = system: CHEAL (Lambsquarters, Common); test: Postemergence herbicidal evaluation; type: in vivo, Chenopodium album; conditions: for CHEAL herbicidal rating / Herbicidal rating CHEAL: postemergence
How it was run: as §2

[4] = Rate 0.0313 kg/ha, rated 3 to 4 weeks after treatment
[5] = Rate 0.0625 kg/ha, rated 3 to 4 weeks after treatment
[6] = Rate 0.1250 kg/ha, rated 3 to 4 weeks after treatment
[7] = Rate 0.2500 kg/ha, rated 3 to 4 weeks after treatment

## CN1C(=O)C(CC(=O)Nc2ccccc2)SC1=Nc1cc(-n2c(=O)cc(C(F)(F)F)n(C)c2=O)c(F)cc1Cl (stereo not shown) [Compound 91, 2-{{2-Chloro-5-[3,6-dihydro-3-methyl-2,6-dioxo-4-(trifluoromethyl)-1(2H)-pyrimidinyl]-4-fluorophenyl}imino}-3-methyl-4-oxo-5-thiazolidineacetanilide]
ECHCG (Barnyardgrass); 0.1250 kg/ha
  ECHCG rating: 0.0
ECHCG (Barnyardgrass); 0.2500 kg/ha
  ECHCG rating: 0.0
GALAP (Galium); 0.1250 kg/ha
  GALAP rating: 0.0
GALAP (Galium); 0.2500 kg/ha
  GALAP rating: 0.0
[1]; 0.1250 kg/ha
  GLXMAW rating: 0.0
[1]; 0.2500 kg/ha
  GLXMAW rating: 0.0
[2]; rate 0.0158 kg/ha
  IPOHE herbicidal rating: 7.0
[2]; rate 0.0315 kg/ha
  IPOHE herbicidal rating: 9.0
[2]; rate 0.0630 kg/ha
  IPOHE herbicidal rating: 9.0
MOOVA (Monochoria); [4]
  Herbicidal rating MOOVA: 9.0
MOOVA (Monochoria); [5]
  Herbicidal rating MOOVA: 9.0
MOOVA (Monochoria); [6]
  Herbicidal rating MOOVA: 9.0
MOOVA (Monochoria); [7]
  Herbicidal rating MOOVA: 9.0
[3]; rate 0.0158 kg/ha
  CHEAL herbicidal rating: 0.0
[3]; rate 0.0315 kg/ha
  CHEAL herbicidal rating: 3.0
[3]; rate 0.0630 kg/ha
  CHEAL herbicidal rating: 3.0

## C=CCN1C(=O)C(CC(=O)NS(=O)(=O)c2ccccc2)SC1=Nc1cc(-n2c(=O)cc(C(F)(F)F)n(C)c2=O)c(F)cc1Cl (stereo not shown) [Compound 101, 3-Allyl-2-{{2-chloro-5-[3,6-dihydro-3-methyl-2,6-dioxo-4-(trifluoromethyl)-1(2H)-pyrimidinyl]-4-fluorophenyl}imino}-4-oxo-N-(phenylsulfonyl)-5-thiazolidineacetamide]
[2]; rate 0.0156 kg/ha
  Herbicidal rating IPOHE: 4.0
[2]; rate 0.0313 kg/ha
  Herbicidal rating IPOHE: 9.0
[2]; rate 0.0625 kg/ha
  Herbicidal rating IPOHE: 9.0
[2]; rate 0.1250 kg/ha
  Herbicidal rating IPOHE: 9.0
MOOVA (Monochoria); [4]
  Herbicidal rating MOOVA: 5.0
MOOVA (Monochoria); [5]
  Herbicidal rating MOOVA: 5.0
MOOVA (Monochoria); [6]
  Herbicidal rating MOOVA: 7.0
MOOVA (Monochoria); [7]
  Herbicidal rating MOOVA: 9.0
MOOVA (Monochoria); Rate 0.5000 kg/ha, rated 3 to 4 weeks after treatment
  Herbicidal rating MOOVA: 9.0
[3]; rate 0.0156 kg/ha
  Herbicidal rating CHEAL: 4.0
[3]; rate 0.0313 kg/ha
  Herbicidal rating CHEAL: 4.0
[3]; rate 0.0625 kg/ha
  Herbicidal rating CHEAL: 4.0
[3]; rate 0.1250 kg/ha
  Herbicidal rating CHEAL: 7.0

## CCOC(=O)CN1C(=O)C(CC(=O)OC(C)C)SC1=Nc1cc(-n2c(=O)cc(C(F)(F)F)n(C)c2=O)c(F)cc1Cl (stereo not shown) [Compound 55, 2-{{2-Chloro-5-[3,6-dihydro-3-methyl-2,6-dioxo-4-(trifluoromethyl)-1(2H)-pyrimidinyl]-4-fluoro-phenyl}imino}-4-oxo-3,5-thiazolidinediacetic acid, 3-ethyl isopropyl ester]
[2]; Rate 0.0158 kg/ha
  Postemergence herbicidal rating IPOHE: 9.0
[2]; Rate 0.0313 kg/ha
  Postemergence herbicidal rating IPOHE: 9.0
[2]; Rate 0.0625 kg/ha
  Postemergence herbicidal rating IPOHE: 9.0
[2]; Rate 0.1250 kg/ha
  Postemergence herbicidal rating IPOHE: 9.0
[2]; Rate 0.2500 kg/ha
  Postemergence herbicidal rating IPOHE: 9.0
MOOVA (Monochoria); rate 0.0313 kg/ha, 3-4 weeks after treatment
  Herbicidal rating MOOVA: 9.0
MOOVA (Monochoria); rate 0.0625 kg/ha, 3-4 weeks after treatment
  Herbicidal rating MOOVA: 9.0
MOOVA (Monochoria); rate 0.1250 kg/ha, 3-4 weeks after treatment
  Herbicidal rating MOOVA: 9.0
MOOVA (Monochoria); rate 0.2500 kg/ha, 3-4 weeks after treatment
  Herbicidal rating MOOVA: 9.0
[3]; Rate 0.0158 kg/ha
  Postemergence herbicidal rating CHEAL: 9.0
[3]; Rate 0.0313 kg/ha
  Postemergence herbicidal rating CHEAL: 9.0
[3]; Rate 0.0625 kg/ha
  Postemergence herbicidal rating CHEAL: 9.0
[3]; Rate 0.1250 kg/ha
  Postemergence herbicidal rating CHEAL: 9.0
[3]; Rate 0.2500 kg/ha
  Postemergence herbicidal rating CHEAL: 9.0

## Cc1ccccc1CN1C(=O)CSC1=Nc1cc(-n2c(=O)cc(C(F)(F)F)n(C)c2=O)c(F)cc1Cl [Compound 129, 3-{4-Chloro-2-fluoro-5-{[3-(o-methylbenzyl)-4-oxo-2-thiazolidinylidene]amino}phenyl}-1-methyl-6-(trifluoromethyl)-2,4 (1H,3H)-pyrimidinedione]
ECHCG (Barnyardgrass); rate 0.0156 kg/ha
  Preemergence herbicidal rating ECHCG: 0.0
ECHCG (Barnyardgrass); rate 0.0313 kg/ha
  Preemergence herbicidal rating ECHCG: 0.0
ECHCG (Barnyardgrass); rate 0.0625 kg/ha
  Preemergence herbicidal rating ECHCG: 0.0
ECHCG (Barnyardgrass); rate 0.1250 kg/ha
  Preemergence herbicidal rating ECHCG: 1.0
ECHCG (Barnyardgrass); rate 0.2500 kg/ha
  Preemergence herbicidal rating ECHCG: 0.0
GALAP (Galium); rate 0.0156 kg/ha
  Preemergence herbicidal rating GALAP: 1.0
GALAP (Galium); rate 0.0313 kg/ha
  Preemergence herbicidal rating GALAP: 1.0
GALAP (Galium); rate 0.0625 kg/ha
  Preemergence herbicidal rating GALAP: 1.0
GALAP (Galium); rate 0.1250 kg/ha
  Preemergence herbicidal rating GALAP: 0.0
GALAP (Galium); rate 0.2500 kg/ha
  Preemergence herbicidal rating GALAP: 0.0
[1]; rate 0.0156 kg/ha
  Preemergence herbicidal rating GLXMAW: 0.0
[1]; rate 0.0313 kg/ha
  Preemergence herbicidal rating GLXMAW: 0.0
[1]; rate 0.0625 kg/ha
  Preemergence herbicidal rating GLXMAW: 2.0
[1]; rate 0.1250 kg/ha
  Preemergence herbicidal rating GLXMAW: 2.0
[1]; rate 0.2500 kg/ha
  Preemergence herbicidal rating GLXMAW: 4.0
[2]; rate 0.0156 kg/ha
  Herbicidal rating IPOHE: 9.0
[2]; rate 0.0313 kg/ha
  Herbicidal rating IPOHE: 9.0
[2]; rate 0.0625 kg/ha
  Herbicidal rating IPOHE: 9.0
[3]; rate 0.0156 kg/ha
  Herbicidal rating CHEAL: 5.0
[3]; rate 0.0313 kg/ha
  Herbicidal rating CHEAL: 9.0
[3]; rate 0.0625 kg/ha
  Herbicidal rating CHEAL: 9.0

## CCOC(=O)CN1C(=O)C(Cc2ccccc2OC)SC1=Nc1cc(-n2c(=O)cc(C(F)(F)F)n(C)c2=O)c(F)cc1Cl (stereo not shown) [Compound 37, Ethyl 2-{{2-chloro-5-[3,6-dihydro-3-methyl-2,6-dioxo-4-(trifluoromethyl)-1(2H)-pyrimidinyl]-4-fluorophenyl}imino}-5-(o-methoxybenzyl)-4-oxo-3-thiazolidineacetate]
ECHCG (Barnyardgrass); rate 0.1250 kg/ha
  Preemergence herbicidal rating ECHCG: 0.0
ECHCG (Barnyardgrass); rate 0.2500 kg/ha
  Preemergence herbicidal rating ECHCG: 0.0
GALAP (Galium); rate 0.1250 kg/ha
  Preemergence herbicidal rating GALAP: 0.0
GALAP (Galium); rate 0.2500 kg/ha
  Preemergence herbicidal rating GALAP: 9.0
[1]; rate 0.1250 kg/ha
  Preemergence herbicidal rating GLXMAW: 0.0
[1]; rate 0.2500 kg/ha
  Preemergence herbicidal rating GLXMAW: 0.0
[2]; Rate 0.0158 kg/ha
  Postemergence herbicidal rating IPOHE: 9.0
[2]; Rate 0.0315 kg/ha
  Postemergence herbicidal rating IPOHE: 9.0
[2]; Rate 0.0630 kg/ha
  Postemergence herbicidal rating IPOHE: 9.0
[3]; Rate 0.0158 kg/ha
  Postemergence herbicidal rating CHEAL: 3.0
[3]; Rate 0.0315 kg/ha
  Postemergence herbicidal rating CHEAL: 3.0
[3]; Rate 0.0630 kg/ha
  Postemergence herbicidal rating CHEAL: 3.0

## CC(C)COC(=O)CN1C(=O)CSC1=Nc1cc(-n2c(=O)cc(C(F)(F)F)n(C)c2=O)c(F)cc1Cl [Compound 121, Isobutyl 2-{{2-chloro-5-[3,6-dihydro-3-methyl-2,6-dioxo-4-(trifluoromethyl)-1(2H)-pyrimidinyl]-4-fluorophenyl}imino}-4-oxo-3-thiazolidineacetate]
ECHCG (Barnyardgrass); rate 0.0156 kg/ha
  Preemergence herbicidal rating ECHCG: 0.0
ECHCG (Barnyardgrass); rate 0.0313 kg/ha
  Preemergence herbicidal rating ECHCG: 0.0
ECHCG (Barnyardgrass); rate 0.0625 kg/ha
  Preemergence herbicidal rating ECHCG: 4.0
ECHCG (Barnyardgrass); rate 0.1250 kg/ha
  Preemergence herbicidal rating ECHCG: 7.0
ECHCG (Barnyardgrass); rate 0.2500 kg/ha
  Preemergence herbicidal rating ECHCG: 9.0
GALAP (Galium); rate 0.0156 kg/ha
  Preemergence herbicidal rating GALAP: 0.0
GALAP (Galium); rate 0.0313 kg/ha
  Preemergence herbicidal rating GALAP: 0.0
GALAP (Galium); rate 0.0625 kg/ha
  Preemergence herbicidal rating GALAP: 0.0
GALAP (Galium); rate 0.1250 kg/ha
  Preemergence herbicidal rating GALAP: 5.0
GALAP (Galium); rate 0.2500 kg/ha
  Preemergence herbicidal rating GALAP: 9.0
[1]; rate 0.0156 kg/ha
  Preemergence herbicidal rating GLXMAW: 0.0
[1]; rate 0.0313 kg/ha
  Preemergence herbicidal rating GLXMAW: 0.0
[1]; rate 0.0625 kg/ha
  Preemergence herbicidal rating GLXMAW: 0.0
[1]; rate 0.1250 kg/ha
  Preemergence herbicidal rating GLXMAW: 1.0
[1]; rate 0.2500 kg/ha
  Preemergence herbicidal rating GLXMAW: 2.0
[2]; rate 0.0156 kg/ha
  Herbicidal rating IPOHE: 9.0
[2]; rate 0.0313 kg/ha
  Herbicidal rating IPOHE: 9.0
[2]; rate 0.0625 kg/ha
  Herbicidal rating IPOHE: 9.0
[3]; rate 0.0156 kg/ha
  Herbicidal rating CHEAL: 4.0
[3]; rate 0.0313 kg/ha
  Herbicidal rating CHEAL: 7.0
[3]; rate 0.0625 kg/ha
  Herbicidal rating CHEAL: 9.0

From patent US20020137929A1, “1 - (3-heterocyclylphenyl) isothiourea, -isourea, -guanidine and -amidine herbicidal agents” (Intellectual Property Department, BASF Aktiengesellschaft, priority 1998, published 2002)
